Measurements: US8399014B2, “Physiologically active complex comprising protamine and/or salt therefor and an acidic macromolecular substance, and use thereof” (Maruha Nichiro Foods, Inc., priority 2008, dated 2013)

What was measured:
fat absorption = settings: oral; protamine dose of 0.5 g; cited from earlier work
[1] = test system: blood tri-glyceride level; experiment: Animal test of fat absorption suppressive effect: blood tri-glyceride AUC after corn oil; type: in vivo; settings: Male SD rats
Description: (1) Sample for control group: Distilled water was filtrated by a membrane filter (DISMIC-13CP, PTFE, φ0.45 μm, ADVANTEC) and used as a test sample for the control group.
(2) Sample for protamine group: Protamine (2.50 g) was dissolved in distilled water (50 mL) filtrated by a membrane filter and used as a test sample for the protamine group.
(3) Sample for alginate mixture group: As a dispersant, soybean polysaccharide (SM-700, 400 mg) was dissolved in distilled water (50 mL) filtrated by a membrane filter to prepare a 0.8% dispersant solution. Protamine (2.00 g) was dissolved with the 0.8% dispersant solution (20 mL) to prepare a protamine solution. To the protamine solution (12.5 mL), an alginate solution (12.5 mL), which was prepared by dissolving alginate (1.60 g) in the 0.8% dispersant solution (20 mL), was added while stirring to prepare a protamine complex suspension and used as a test sample for an alginate complex (mixture) group.
(4) Sample for gum arabic mixture group: Protamine (2.00 g) was dissolved in distilled water (20 mL) to prepare a protamine solution. […]
Evaluation was performed using Male SD rats (6 weeks old, 7 rats per group). […] Using the plasma samples, a blood tri-glyceride level was measured and compared to the control group with respect to blood-level area under the curve (AUC).

Substance: protamine
- fat absorption suppressive effect when orally taken by humans (fat absorption): exerts a fat absorption suppressive effect
- fat absorption suppressive effect compared to the control group ([1]; oral, corn oil load): significant fat absorption suppressive effect
- AUC relative to control group (blood tri-glyceride level) ([1]; test substance 5 mL/kg orally (corresponding to 0.5 g/kg in terms of protamine), then corn oil 5 mL/kg, blood at 0, 1.5, 3.0, 4.5 hours): 78 ± 7%
